The target in assay [1] is T1, Adenosine receptor A2b (Homo sapiens, UniProt P29275).
T1 sequence (P29275 whole entry): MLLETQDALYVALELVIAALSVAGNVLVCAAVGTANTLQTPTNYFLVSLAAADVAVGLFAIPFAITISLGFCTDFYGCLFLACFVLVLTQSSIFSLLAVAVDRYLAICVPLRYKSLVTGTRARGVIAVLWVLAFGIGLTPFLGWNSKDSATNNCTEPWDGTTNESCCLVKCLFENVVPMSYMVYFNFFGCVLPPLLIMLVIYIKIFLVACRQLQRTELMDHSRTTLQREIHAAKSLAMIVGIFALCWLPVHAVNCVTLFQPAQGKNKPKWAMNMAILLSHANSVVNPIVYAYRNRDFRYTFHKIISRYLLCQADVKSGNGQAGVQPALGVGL
As to the kind of experiment: Displacement of [3H]DPCPX from human recombinant adenosine A2B receptor expressed in HEK293 cells after 30 mins. In kind it is cell-based.

In assay [2] the target is T2, Adenosine receptor A2a (Homo sapiens, UniProt P29274). Description: Displacement of [3H]ZM241385 from human recombinant adenosine A2A receptor expressed in human HeLa cells at 1 uM after 30 mins. In kind it is cell-based. On the technique in general: Displacement assays read how much labelled ligand stays bound in the presence of the test substance.
Assay [3] addresses T3, Adenosine receptor A1 (Homo sapiens) (UniProt P30542).
T3 sequence (whole entry): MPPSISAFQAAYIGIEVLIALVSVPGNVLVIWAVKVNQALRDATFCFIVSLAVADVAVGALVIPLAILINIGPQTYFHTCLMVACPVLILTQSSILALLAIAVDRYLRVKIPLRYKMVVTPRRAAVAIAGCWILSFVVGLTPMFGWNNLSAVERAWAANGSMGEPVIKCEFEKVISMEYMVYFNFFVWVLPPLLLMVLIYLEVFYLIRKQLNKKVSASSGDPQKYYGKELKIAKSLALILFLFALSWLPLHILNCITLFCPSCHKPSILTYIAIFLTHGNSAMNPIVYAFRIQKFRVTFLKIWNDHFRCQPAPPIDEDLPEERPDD
As to the kind of experiment: Displacement of [3H]DPCPX from human recombinant adenosine A1 receptor expressed in CHO-A1 cells at 1 uM after 60 mins. In kind it is cell-based.

Assay [4] has as its target T4, Adenosine receptor A3 (Homo sapiens) (UniProt P0DMS8).
T4 sequence (whole entry): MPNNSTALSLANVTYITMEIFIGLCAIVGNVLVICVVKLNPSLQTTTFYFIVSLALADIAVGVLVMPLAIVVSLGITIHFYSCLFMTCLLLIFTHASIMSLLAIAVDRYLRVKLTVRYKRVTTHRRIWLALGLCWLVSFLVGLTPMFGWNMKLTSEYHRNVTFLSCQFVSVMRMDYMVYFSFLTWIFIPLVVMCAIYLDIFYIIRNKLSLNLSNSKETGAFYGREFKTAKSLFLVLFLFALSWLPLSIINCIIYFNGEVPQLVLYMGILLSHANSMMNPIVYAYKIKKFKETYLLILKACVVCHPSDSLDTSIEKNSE
Description: Displacement of [3H]NECA from human recombinant adenosine A3 receptor expressed in human HeLa cells at 1 uM after 180 mins by scintillation counting. The assay is classed as cell-based.

In assay [5] the target is T5, Adenosine receptor A1 (Homo sapiens, UniProt P30542).
T5 sequence (P30542 whole entry): T3 sequence (whole entry)
As to the kind of experiment: Displacement of [3H]DPCPX from human recombinant adenosine A1 receptor expressed in CHO-A1 cells after 60 mins. In kind it is cell-based.

Assay [6] is filed under the species Homo sapiens. Description: Selectivity ratio of Ki for human recombinant adenosine A2B receptor to Ki for human recombinant adenosine A1 receptor.
In assay [7] the target is T2, Adenosine receptor A2a. As to the kind of experiment: Displacement of [3H]ZM241385 from human recombinant adenosine A2A receptor expressed in human HeLa cells after 30 mins. The assay is classed as cell-based.
For assay [8], the species on record is Homo sapiens. As to the kind of experiment: Selectivity ratio of Ki for human recombinant adenosine A2B receptor to Ki for human recombinant adenosine A2A receptor.
Assay [9] deals with T6, Adenosine receptor A2b (Homo sapiens) (UniProt P29275).
T6 sequence (whole entry): T1 sequence (P29275 whole entry)
As to the kind of experiment: Displacement of [3H]DPCPX from human recombinant adenosine A2B receptor expressed in HEK293 cells at 1 uM after 30 mins. In kind it is cell-based.

Each structure is given as a SMILES string.

What is called Ki is a measure of affinity in units of concentration, obtained from inhibition or displacement. By inhibition is commonly meant the change of the read-out against control, counted positive when it falls.

T2 sequence (P29274 whole entry): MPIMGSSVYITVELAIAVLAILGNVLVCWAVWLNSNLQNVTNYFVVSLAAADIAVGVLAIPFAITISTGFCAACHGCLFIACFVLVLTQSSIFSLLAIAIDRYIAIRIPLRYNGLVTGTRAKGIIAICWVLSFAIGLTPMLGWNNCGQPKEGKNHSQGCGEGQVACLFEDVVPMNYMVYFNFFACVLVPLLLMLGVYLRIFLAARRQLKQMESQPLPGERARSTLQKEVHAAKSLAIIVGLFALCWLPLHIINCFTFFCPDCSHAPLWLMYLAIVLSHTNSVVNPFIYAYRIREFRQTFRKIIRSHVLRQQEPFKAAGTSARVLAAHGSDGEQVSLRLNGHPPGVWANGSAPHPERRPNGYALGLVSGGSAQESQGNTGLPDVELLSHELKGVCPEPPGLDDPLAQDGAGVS

With `CCCn1c(=O)[nH]c(=O)c2[nH]c(-c3ccc(OCC(=O)Nc4ccc(Br)cc4)cc3)cc21`, the Ki in [1] is 21.9 nM. In addition, the inhibition worked out at 22% in [2], 41% in [3] and 28% in assay [4].

On to `CCCn1c(=O)[nH]c(=O)c2[nH]c(-c3ccc(OCC(=O)Nc4ccc(F)cc4)cc3)cc21`, for which the Ki in [1] was 100 nM. In addition, the inhibition in [2] was determined as 36%; in [3] it was 2%; in assay [4], 3%.

For `CCCn1c(=O)[nH]c(=O)c2[nH]c(-c3ccc(OCC(=O)N4CCN(c5ccccc5)CC4)cc3)cc21`, the Ki in assay [1] is 115 nM. Moreover, the inhibition in [2] was determined as 33%; in [3] it was 23%; in [4], 15%.

In the case of `CCCn1c(=O)[nH]c2cc(-c3ccc(OCC(=O)Nc4ccc(Br)cc4)cc3)[nH]c2c1=O`, the Ki in [1] is 3.55 nM; in assay [5], 1.74 nM. The Ratio pKi in assay [6] was 0.49. The inhibition in [2] amounted to 43%; in [4], 14%.

Turning to `CCCn1c(=O)[nH]c(=O)c2[nH]c(-c3ccc(OCC(=O)N4CCc5ccccc5C4)cc3)cc21`, the Ki in assay [1] was 79.4 nM. Besides, the inhibition in [2] was 12%; in assay [3], 9%; in assay [4] it was 1%.

Consider `CCCn1c(=O)c2c(cc(-c3ccc(OCC(=O)Nc4ccc(F)cc4)cc3)n2C)n(C)c1=O`, for which, in [1], the inhibition constant Ki is 30.9 nM. In addition, in assay [6], the Ratio pKi amounted to 5.89. The figures for the inhibition in assay [2] and in assay [4] were 11% and 6%, respectively.

On to `CCCn1c(=O)[nH]c2cc(-c3ccc(OCC(=O)Nc4ccc(F)cc4)cc3)[nH]c2c1=O`, for which the Ki in [1] is 2.34 nM; in [7], 6460 nM; in [5], 75.9 nM. Also, the Ratio pKi worked out at 2750 in assay [8] and 32.4 in assay [6]. Moreover, the inhibition in assay [4] was found to be 2%.

Take `CCCn1c(=O)[nH]c2cc(-c3ccc(OCc4nc(-c5ccc(Br)cc5)no4)cc3)[nH]c2c1=O`: the Ki in [1] was 31.6 nM. The inhibition in assay [2] came to 11%; in assay [3], 21%; in assay [4] it was 2%.

As for `CCCn1c(=O)c2c(cc(-c3ccc(OCC(=O)N4CCN(c5ccccc5)CC4)cc3)n2C)n(CCC)c1=O`, the inhibition in assay [9] was 36%; in assay [2] it was 22%; in [3], 22%; in assay [4] it was 2%.

Regarding `CCCn1c(=O)[nH]c(=O)c2[nH]c(-c3ccc(OCC(=O)Nc4ccccc4)cc3)cc21`, the Ki in assay [1] is 1050 nM. Moreover, the inhibition is 17% in assay [2], 0.5% in [3] and 1% in [4].

Take `CCCn1c(=O)c2c(cc(-c3ccc(OCC(=O)Nc4ccc(F)cc4)cc3)n2C)n(CCC)c1=O`: the inhibition in [9] stood at 20%; in assay [2] it was 15%; in assay [3] it was 9%; in assay [4], 1%.

`COc1cc(OCc2nc(-c3ccc(Br)cc3)no2)ccc1-c1cc2c([nH]1)c(=O)n(C)c(=O)n2C`: the results for the Ki in assay [1], in [7] and in [5] were 40.7 nM, 708 nM and 182 nM, respectively. In addition, in [8], the Ratio pKi was determined as 17.4. The inhibition in [3] was found to be 36%; in [4], 3%.

With `CCCn1c(=O)c2c(cc(-c3ccc(OCC(=O)N4CCc5ccccc5C4)cc3)n2C)n(CCC)c1=O`, in assay [1], the Ki is 97.7 nM. For the same molecule, the inhibition amounted to 29% in assay [2], 19% in [3] and 9% in assay [4].

These data come from ChEMBL document CHEMBL1177853, “Synthesis and pharmacological evaluation of novel substituted 9-deazaxanthines as A2B receptor antagonists” (Eur J Med Chem, 2010).
